Measurements taken from PubChem BioAssay (NCI).
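Following 48 hours of exposure in 96-well plates, responses at five concentrations were used to interpolate endpoints linearly. TGI is the concentration that stops growth completely.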

Columns and labels:
Test in all cases: growth of human tumour cells (NCI), 48 h
[1] = tested on: 786-0 renal
[2] = tested on: A498 renal
[3] = tested on: A549 NSCLC
[4] = tested on: ACHN renal
[5] = tested on: BT-549 breast
[6] = tested on: CAKI-1 renal
[7] = tested on: COLO 205 colon
[8] = tested on: DU-145 prostate
[9] = tested on: EKVX NSCLC
[10] = tested on: HCC-2998 colon
[11] = tested on: HCT-116 colon
[12] = tested on: HCT-15 colon
[13] = tested on: HL-60(TB) leukemia
[14] = tested on: HOP-62 NSCLC
[15] = tested on: HOP-92 NSCLC
[16] = tested on: HS 578T breast
[17] = tested on: HT29 colon
[18] = tested on: IGROV1 ovarian
[19] = tested on: K-562 leukemia
[20] = tested on: LOX IMVI melanoma
[21] = tested on: M14 melanoma
[22] = tested on: MALME-3M melanoma
[23] = tested on: MCF7 breast
[24] = tested on: MDA-MB-231 breast
[25] = tested on: MDA-MB-435
[26] = tested on: MDA-N
[27] = tested on: MOLT-4 leukemia
[28] = tested on: NCI-H226 lung
[29] = tested on: NCI-H23 lung
[30] = tested on: NCI-H460 lung
[31] = tested on: NCI-H522 lung
[32] = tested on: NCI/ADR-RES ovarian
[33] = tested on: OVCAR-3 ovarian
[34] = tested on: OVCAR-4 ovarian
[35] = tested on: OVCAR-5 ovarian
[36] = tested on: OVCAR-8 ovarian
[37] = tested on: PC-3 prostate
[38] = tested on: RPMI-8226 leukemia
[39] = tested on: RXF 393 renal
[40] = tested on: SF-268 CNS
[41] = tested on: SF-295 CNS
[42] = tested on: SF-539 CNS
[43] = tested on: SK-MEL-2 melanoma
[44] = tested on: SK-MEL-28 melanoma
[45] = tested on: SK-MEL-5 melanoma
[46] = tested on: SK-OV-3 ovarian
[47] = tested on: SN12C renal
[48] = tested on: SNB-19 CNS
[49] = tested on: SNB-75 CNS
[50] = tested on: SR leukemia
[51] = tested on: SW-620 colon
[52] = tested on: T-47D breast
[53] = tested on: TK-10 renal
[54] = tested on: U251 CNS
[55] = tested on: UACC-257 melanoma
[56] = tested on: UO-31 renal
[57] = tested on: KM12 colon
[58] = tested on: UACC-62 melanoma
[59] = tested on: CCRF-CEM leukemia

CCCCCCCCCCCCOP(=O)(O)OCC(N)C(=O)O (stereo not drawn)
TGI [1]: > 100 µM
TGI [2]: 75.8 µM
TGI [3]: > 100 µM
TGI [4]: > 100 µM
TGI [5]: 64 µM
TGI [6]: 95.8 µM
TGI [7]: > 100 µM
TGI [8]: > 100 µM
TGI [9]: > 100 µM
TGI [10]: > 100 µM
TGI [11]: 27.6 µM
TGI [12]: 36.6 µM
TGI [13]: 36.8 µM
TGI [14]: 31.6 µM
TGI [15]: 43.3 µM
TGI [16]: 33.3 µM
TGI [17]: > 100 µM
TGI [18]: > 100 µM
TGI [19]: > 100 µM
TGI [20]: 64 µM
TGI [21]: > 100 µM
TGI [22]: > 100 µM
TGI [23]: > 100 µM
TGI [24]: 58 µM
TGI [25]: 36.8 µM
TGI [26]: 62.6 µM
TGI [27]: 36.2 µM
TGI [28]: > 100 µM
TGI [29]: > 100 µM
TGI [30]: 43.2 µM
TGI [31]: > 100 µM
TGI [32]: > 100 µM
TGI [33]: 33.2 µM
TGI [34]: > 100 µM
TGI [35]: > 100 µM
TGI [36]: > 100 µM
TGI [37]: 35.1 µM
TGI [38]: 68.5 µM
TGI [39]: > 100 µM
TGI [40]: > 100 µM
TGI [41]: 41.7 µM
TGI [42]: 51.6 µM
TGI [43]: 51.8 µM
TGI [44]: > 100 µM
TGI [45]: 61.7 µM
TGI [46]: 50.1 µM
TGI [47]: 61 µM
TGI [48]: 44 µM
TGI [49]: 51.9 µM
TGI [50]: 90 µM
TGI [51]: > 100 µM
TGI [52]: > 100 µM
TGI [53]: 53 µM
TGI [54]: 26.7 µM
TGI [55]: > 100 µM
TGI [56]: 28.9 µM

CCOC(=O)Cc1nc2sc(S(N)(=O)=O)nn2c1Br
TGI [1]: 52.1 µM
TGI [2]: 65.6 µM
TGI [3]: > 100 µM
TGI [4]: 93.3 µM
TGI [5]: 83.8 µM
TGI [6]: 37.2 µM
TGI [7]: > 100 µM
TGI [8]: > 100 µM
TGI [9]: 79.4 µM
TGI [10]: 48.1 µM
TGI [11]: 96.5 µM
TGI [12]: 77.5 µM
TGI [13]: > 100 µM
TGI [14]: > 100 µM
TGI [15]: 41.1 µM
TGI [16]: > 100 µM
TGI [17]: 45.1 µM
TGI [18]: 90.8 µM
TGI [19]: > 100 µM
TGI [57]: > 100 µM
TGI [20]: 44.3 µM
TGI [21]: 33.8 µM
TGI [22]: 81.7 µM
TGI [23]: > 100 µM
TGI [24]: 44.6 µM
TGI [25]: > 100 µM
TGI [26]: > 100 µM
TGI [28]: 73 µM
TGI [29]: 81.5 µM
TGI [30]: > 100 µM
TGI [31]: 39.5 µM
TGI [32]: > 100 µM
TGI [33]: 98.5 µM
TGI [35]: > 100 µM
TGI [36]: 47.7 µM
TGI [37]: 63.9 µM
TGI [38]: 73.5 µM
TGI [39]: 69.8 µM
TGI [40]: > 100 µM
TGI [41]: > 100 µM
TGI [43]: > 100 µM
TGI [44]: 96.2 µM
TGI [45]: 42.4 µM
TGI [46]: > 100 µM
TGI [47]: 52.5 µM
TGI [48]: > 100 µM
TGI [49]: > 100 µM
TGI [50]: > 100 µM
TGI [51]: 48 µM
TGI [52]: 70.8 µM
TGI [53]: > 100 µM
TGI [54]: 37.9 µM
TGI [55]: > 100 µM
TGI [58]: 36.1 µM
TGI [56]: 29.4 µM

COC(=O)C1CCC(=O)N1C(c1ccc(OC)cc1)c1ccc(OC)cc1 (stereo not drawn)
TGI [1]: > 100 µM
TGI [2]: > 100 µM
TGI [3]: > 100 µM
TGI [4]: > 100 µM
TGI [5]: > 100 µM
TGI [6]: > 100 µM
TGI [59]: > 100 µM
TGI [7]: > 100 µM
TGI [8]: > 100 µM
TGI [9]: > 100 µM
TGI [10]: > 100 µM
TGI [11]: > 100 µM
TGI [12]: > 100 µM
TGI [13]: > 100 µM
TGI [14]: > 100 µM
TGI [15]: > 100 µM
TGI [16]: > 100 µM
TGI [17]: > 100 µM
TGI [18]: > 100 µM
TGI [19]: > 100 µM
TGI [57]: > 100 µM
TGI [20]: > 100 µM
TGI [21]: > 100 µM
TGI [22]: > 100 µM
TGI [23]: > 100 µM
TGI [24]: > 100 µM
TGI [25]: > 100 µM
TGI [26]: > 100 µM
TGI [27]: > 100 µM
TGI [28]: > 100 µM
TGI [29]: > 100 µM
TGI [30]: > 100 µM
TGI [31]: > 100 µM
TGI [32]: > 100 µM
TGI [33]: > 100 µM
TGI [34]: > 100 µM
TGI [35]: > 100 µM
TGI [36]: > 100 µM
TGI [37]: > 100 µM
TGI [38]: > 100 µM
TGI [40]: > 100 µM
TGI [41]: > 100 µM
TGI [42]: > 100 µM
TGI [43]: > 100 µM
TGI [44]: > 100 µM
TGI [45]: > 100 µM
TGI [46]: > 100 µM
TGI [47]: > 100 µM
TGI [48]: > 100 µM
TGI [49]: > 100 µM
TGI [50]: > 100 µM
TGI [51]: > 100 µM
TGI [52]: > 100 µM
TGI [53]: > 100 µM
TGI [54]: > 100 µM
TGI [55]: > 100 µM
TGI [58]: > 100 µM
TGI [56]: > 100 µM

COCOc1c(C(O[Si](C)(C)C(C)(C)C)c2cnc(Sc3ccccc3)n2C)ccc(OC)c1OC (stereo not drawn)
TGI [1]: 4.41 µM
TGI [3]: 4.33 µM
TGI [4]: 6.98 µM
TGI [5]: 4.02 µM
TGI [6]: 10.1 µM
TGI [59]: 9 µM
TGI [8]: > 100 µM
TGI [9]: 7.65 µM
TGI [10]: 3.7 µM
TGI [11]: 2.95 µM
TGI [12]: 4.32 µM
TGI [14]: 3.61 µM
TGI [15]: 6.36 µM
TGI [16]: 6.17 µM
TGI [17]: 4.15 µM
TGI [18]: 5.01 µM
TGI [57]: 3.93 µM
TGI [20]: 3.23 µM
TGI [22]: 8.93 µM
TGI [23]: 3.8 µM
TGI [24]: 3.19 µM
TGI [25]: 3.26 µM
TGI [26]: 3.34 µM
TGI [27]: 8.95 µM
TGI [28]: 4.14 µM
TGI [29]: > 100 µM
TGI [30]: 3.02 µM
TGI [31]: 3.58 µM
TGI [32]: 2.75 µM
TGI [33]: 3.22 µM
TGI [34]: 16.2 µM
TGI [35]: > 100 µM
TGI [36]: 2.74 µM
TGI [37]: 3.04 µM
TGI [38]: 4.77 µM
TGI [39]: 2.71 µM
TGI [40]: 3.34 µM
TGI [41]: 6.18 µM
TGI [42]: 3.71 µM
TGI [43]: 3.05 µM
TGI [44]: 4.18 µM
TGI [45]: 3.21 µM
TGI [46]: 7.74 µM
TGI [47]: 3.31 µM
TGI [48]: 6.27 µM
TGI [49]: 5.77 µM
TGI [50]: 7.74 µM
TGI [51]: 3.8 µM
TGI [52]: > 100 µM
TGI [53]: 16.3 µM
TGI [54]: 3.1 µM
TGI [55]: 4.6 µM
TGI [58]: 3.91 µM
TGI [56]: 3.32 µM
